Converted amounts (≈) assume the structure as drawn. Where two headings read alike, the source gives them in different places.
Columns and labels:
S. aureus GC 6469 = assay: MIC, broth microdilution; settings: Staphylococcus aureus
E. coli GC 2271 = assay: MIC, broth microdilution; settings: Escherichia coli
Method: (§1) Antimicrobial susceptibility testing. The in vitro activities of the antibiotics are determined by the broth microdilution method as recommended by the National Committee for Clinical Laboratory Standards (NCCLS) (1). Mueller-Hinton II broth (MHBII)(BBL Cockeysville, Md.) is the medium employed in the testing procedures. Microtiter plates containing serial dilutions of each antimicrobial agent are inoculated with each organism to yield the appropriate density (10^5 CFU/ml) in a 100 μl final volume. The plates are incubated for 18-22 hours at 35° C. in ambient air.
Representative compounds were first incubated in mouse serum for an hour prior to the in vitro testing against a panel of selected gram-positive and gram-negative bacteria strains. All compounds were also pre-incubated in water for an hour prior to testing as control.

E. faecalis GC 2265 = assay: MIC, broth microdilution; settings: Enterococcus faecalis
E. coli = assay: Range of MIC for E. coli strains; settings: Escherichia coli
E. coli GC 2203 = assay: MIC, broth microdilution; settings: Escherichia coli
E. faecalis GC 4555 = assay: MIC, broth microdilution; settings: Enterococcus faecalis
E. coli GC 4559 = assay: MIC, broth microdilution; settings: Escherichia coli
E. coli GC 1073 = assay: MIC, broth microdilution; settings: Escherichia coli
E. coli GC 2270 = assay: MIC, broth microdilution; settings: Escherichia coli
S. agalactiae GC 4564 = assay: MIC, broth microdilution; settings: Streptococcus agalactiae
E. coli GC 6465 = assay: MIC, broth microdilution; settings: Escherichia coli
E. coli GC 2236 = assay: MIC, broth microdilution; settings: Escherichia coli
E. coli GC 2233 = assay: MIC, broth microdilution; settings: Escherichia coli
E. faecalis GC 2242 = assay: MIC, broth microdilution; settings: Enterococcus faecalis
E. coli GC 2235 = assay: MIC, broth microdilution; settings: Escherichia coli
Staph. = assay: Range of MIC for Staph. strains, including MRSA; settings: Staphylococcus aureus
S. aureus GC 4536 = assay: MIC, broth microdilution; settings: Staphylococcus aureus
E. coli GC 4560 = assay: MIC, broth microdilution; settings: Escherichia coli
Method: as §1
Representative compounds were first incubated in mouse serum for an hour prior to the in vitro testing against a panel of selected gram-positive and gram-negative bacteria strains. All compounds were also pre-incubated in water for an hour prior to testing as control. Representative compounds of Formula I were incubated in human serum prior to MIC determination.

S. aureus GC 6467 = assay: MIC, broth microdilution; settings: Staphylococcus aureus
P. aeruginosa GC 2214 = assay: MIC, broth microdilution; settings: Pseudomonas aeruginosa

SMILES: Cc1cc(C)cc(C(=O)OCOC(=O)N(CC(=O)Nc2cc(N(C)C)c3c(c2O)C(=O)C2=C(O)[C@]4(O)C(=O)C(C(N)=O)=C(O)[C@@H](N(C)C)[C@@H]4C[C@@H]2C3)C(C)(C)C)c1 [Example 51]
- MIC (S. aureus GC 6469; GC6469, read-out: MINIMAL INHIBITORY CONCENTRATION MIC, Human Serum): 1 µg/mL (≈ 1.26 µM)
- MIC (S. aureus GC 6469; GC6469, read-out: MINIMAL INHIBITORY CONCENTRATION MIC, Mouse Serum): 1 µg/mL (≈ 1.26 µM)
- MIC (S. aureus GC 6469; GC6469, read-out: MINIMAL INHIBITORY CONCENTRATION MIC, Water): 2 µg/mL (≈ 2.53 µM)
- MIC (E. coli GC 2271; GC2271, read-out: MINIMAL INHIBITORY CONCENTRATION MIC, Human Serum): 32 µg/mL (≈ 40.4 µM)
- MIC (E. coli GC 2271; GC2271, read-out: MINIMAL INHIBITORY CONCENTRATION MIC, Mouse Serum): 1 µg/mL (≈ 1.26 µM)
- MIC (E. coli GC 2271; GC2271, read-out: MINIMAL INHIBITORY CONCENTRATION MIC, Water): > 64 µg/mL
- MIC (E. faecalis GC 2265; GC2265, read-out: MINIMAL INHIBITORY CONCENTRATION MIC, Human Serum): 4 µg/mL (≈ 5.05 µM)
- MIC (E. faecalis GC 2265; GC2265, read-out: MINIMAL INHIBITORY CONCENTRATION MIC, Mouse Serum): 1 µg/mL (≈ 1.26 µM)
- MIC (E. faecalis GC 2265; GC2265, read-out: MINIMAL INHIBITORY CONCENTRATION MIC, Water): 8 µg/mL (≈ 10.1 µM)
- MIC (E. coli; 20 h, read-out: Range of MIC, E. coli (Mouse Serum)): 1 to 2 µg/mL (≈ 1.26 to 2.53 µM)
- MIC (E. coli; read-out: Minimum inhibitory concentration (MIC), E. coli (Human Serum)): 32 to 64 µg/mL (≈ 40.4 to 80.8 µM)
- MIC (E. coli; read-out: Minimum inhibitory concentration (MIC), E. coli (water)): > 64 µg/mL
- MIC (E. coli; read-out: Range of MIC, E. coli (Water)): > 64 µg/mL
- MIC (E. coli GC 2203; GC2203, read-out: MINIMAL INHIBITORY CONCENTRATION MIC, Human Serum): 32 µg/mL (≈ 40.4 µM)
- MIC (E. coli GC 2203; GC2203, read-out: MINIMAL INHIBITORY CONCENTRATION MIC, Mouse Serum): 2 µg/mL (≈ 2.53 µM)
- MIC (E. coli GC 2203; GC2203, read-out: MINIMAL INHIBITORY CONCENTRATION MIC, Water): > 64 µg/mL
- MIC (E. faecalis GC 4555; GC4555, read-out: MINIMAL INHIBITORY CONCENTRATION MIC, Human Serum): 8 µg/mL (≈ 10.1 µM)
- MIC (E. faecalis GC 4555; GC4555, read-out: MINIMAL INHIBITORY CONCENTRATION MIC, Mouse Serum): 1 µg/mL (≈ 1.26 µM)
- MIC (E. faecalis GC 4555; GC4555, read-out: MINIMAL INHIBITORY CONCENTRATION MIC, Water): 16 µg/mL (≈ 20.2 µM)
- MIC (E. coli GC 4559; GC4559, read-out: MINIMAL INHIBITORY CONCENTRATION MIC, Human Serum): 32 µg/mL (≈ 40.4 µM)
- MIC (E. coli GC 4559; GC4559, read-out: MINIMAL INHIBITORY CONCENTRATION MIC, Mouse Serum): 2 µg/mL (≈ 2.53 µM)
- MIC (E. coli GC 4559; GC4559, read-out: MINIMAL INHIBITORY CONCENTRATION MIC, Water): > 64 µg/mL
- MIC (E. coli GC 1073; GC1073, read-out: MINIMAL INHIBITORY CONCENTRATION MIC, Human Serum): 64 µg/mL (≈ 80.8 µM)
- MIC (E. coli GC 1073; GC1073, read-out: MINIMAL INHIBITORY CONCENTRATION MIC, Mouse Serum): 2 µg/mL (≈ 2.53 µM)
- MIC (E. coli GC 1073; GC1073, read-out: MINIMAL INHIBITORY CONCENTRATION MIC, Water): > 64 µg/mL
- MIC (E. coli GC 2270; GC2270, read-out: MINIMAL INHIBITORY CONCENTRATION MIC, Human Serum): 32 µg/mL (≈ 40.4 µM)
- MIC (E. coli GC 2270; GC2270, read-out: MINIMAL INHIBITORY CONCENTRATION MIC, Mouse Serum): 1 µg/mL (≈ 1.26 µM)
- MIC (E. coli GC 2270; GC2270, read-out: MINIMAL INHIBITORY CONCENTRATION MIC, Water): > 64 µg/mL
- MIC (S. agalactiae GC 4564; GC4564, read-out: MINIMAL INHIBITORY CONCENTRATION MIC, Human Serum): 4 µg/mL (≈ 5.05 µM)
- MIC (S. agalactiae GC 4564; GC4564, read-out: MINIMAL INHIBITORY CONCENTRATION MIC, Mouse Serum): 1 µg/mL (≈ 1.26 µM)
- MIC (S. agalactiae GC 4564; GC4564, read-out: MINIMAL INHIBITORY CONCENTRATION MIC, Water): 2 µg/mL (≈ 2.53 µM)
- MIC (E. coli GC 6465; GC6465, read-out: MINIMAL INHIBITORY CONCENTRATION MIC, Human Serum): 32 µg/mL (≈ 40.4 µM)
- MIC (E. coli GC 6465; GC6465, read-out: MINIMAL INHIBITORY CONCENTRATION MIC, Mouse Serum): 4 µg/mL (≈ 5.05 µM)
- MIC (E. coli GC 6465; GC6465, read-out: MINIMAL INHIBITORY CONCENTRATION MIC, Water): > 64 µg/mL
- MIC (E. coli GC 2236; GC2236, read-out: MINIMAL INHIBITORY CONCENTRATION MIC, Human Serum): 32 µg/mL (≈ 40.4 µM)
- MIC (E. coli GC 2236; GC2236, read-out: MINIMAL INHIBITORY CONCENTRATION MIC, Mouse Serum): 2 µg/mL (≈ 2.53 µM)
- MIC (E. coli GC 2236; GC2236, read-out: MINIMAL INHIBITORY CONCENTRATION MIC, Water): > 64 µg/mL
- MIC (E. coli GC 2233; GC2233, read-out: MINIMAL INHIBITORY CONCENTRATION MIC, Human Serum): 32 µg/mL (≈ 40.4 µM)
- MIC (E. coli GC 2233; GC2233, read-out: MINIMAL INHIBITORY CONCENTRATION MIC, Mouse Serum): 2 µg/mL (≈ 2.53 µM)
- MIC (E. coli GC 2233; GC2233, read-out: MINIMAL INHIBITORY CONCENTRATION MIC, Water): > 64 µg/mL
- MIC (E. faecalis GC 2242; GC2242, read-out: MINIMAL INHIBITORY CONCENTRATION MIC, Human Serum): 4 µg/mL (≈ 5.05 µM)
- MIC (E. faecalis GC 2242; GC2242, read-out: MINIMAL INHIBITORY CONCENTRATION MIC, Mouse Serum): 2 µg/mL (≈ 2.53 µM)
- MIC (E. faecalis GC 2242; GC2242, read-out: MINIMAL INHIBITORY CONCENTRATION MIC, Water): 8 µg/mL (≈ 10.1 µM)
- MIC (E. coli GC 2235; GC2235, read-out: MINIMAL INHIBITORY CONCENTRATION MIC, Human Serum): 32 µg/mL (≈ 40.4 µM)
- MIC (E. coli GC 2235; GC2235, read-out: MINIMAL INHIBITORY CONCENTRATION MIC, Mouse Serum): 1 µg/mL (≈ 1.26 µM)
- MIC (E. coli GC 2235; GC2235, read-out: MINIMAL INHIBITORY CONCENTRATION MIC, Water): > 64 µg/mL
- MIC (Staph.; MRSA, read-out: Range of MIC, Staph (Mouse Serum)): 0.25 to 2 µg/mL (≈ 0.316 to 2.53 µM)
- MIC (Staph.; MRSA, read-out: Range of MIC, Staph (Water)): 1 to 4 µg/mL (≈ 1.26 to 5.05 µM)
- MIC (Staph.; read-out: Minimum inhibitory concentration (MIC), Staph (Human Serum)): 0.25 to 2 µg/mL (≈ 0.316 to 2.53 µM)
- MIC (Staph.; read-out: Minimum inhibitory concentration (MIC), Staph (Water)): 1 to 4 µg/mL (≈ 1.26 to 5.05 µM)
- MIC (S. aureus GC 4536; GC4536, read-out: MINIMAL INHIBITORY CONCENTRATION MIC, Human Serum): 0.5 µg/mL (≈ 0.631 µM)
- MIC (S. aureus GC 4536; GC4536, read-out: MINIMAL INHIBITORY CONCENTRATION MIC, Mouse Serum): 0.5 µg/mL (≈ 0.631 µM)
- MIC (S. aureus GC 4536; GC4536, read-out: MINIMAL INHIBITORY CONCENTRATION MIC, Water): 1 µg/mL (≈ 1.26 µM)
- MIC (E. coli GC 4560; GC4560, read-out: MINIMAL INHIBITORY CONCENTRATION MIC, Human Serum): 8 µg/mL (≈ 10.1 µM)
- MIC (E. coli GC 4560; GC4560, read-out: MINIMAL INHIBITORY CONCENTRATION MIC, Mouse Serum): 1 µg/mL (≈ 1.26 µM)
- MIC (E. coli GC 4560; GC4560, read-out: MINIMAL INHIBITORY CONCENTRATION MIC, Water): 32 µg/mL (≈ 40.4 µM)
- MIC (S. aureus GC 6467; GC6467, read-out: MINIMAL INHIBITORY CONCENTRATION MIC, Human Serum): 1 µg/mL (≈ 1.26 µM)
- MIC (S. aureus GC 6467; GC6467, read-out: MINIMAL INHIBITORY CONCENTRATION MIC, Mouse Serum): 0.5 µg/mL (≈ 0.631 µM)
- MIC (S. aureus GC 6467; GC6467, read-out: MINIMAL INHIBITORY CONCENTRATION MIC, Water): 2 µg/mL (≈ 2.53 µM)
- MIC (P. aeruginosa GC 2214; GC2214, read-out: MINIMAL INHIBITORY CONCENTRATION MIC, Human Serum): > 64 µg/mL
- MIC (P. aeruginosa GC 2214; GC2214, read-out: MINIMAL INHIBITORY CONCENTRATION MIC, Mouse Serum): 64 µg/mL (≈ 80.8 µM)
- MIC (P. aeruginosa GC 2214; GC2214, read-out: MINIMAL INHIBITORY CONCENTRATION MIC, Water): > 64 µg/mL

From patent publication US20070049564A1 (Wyeth, priority 2005, published 2007)
